According to the NIST ThermoML archive (doi:10.1016/j.fluid.2005.05.012):
Where “and” joins values, the source holds several entries; their conditions need not be identical. Equal values may be shown once.

Tests used:
[1] = 101.33 kPa, Liquid
[2] = xn = mol fraction of the nth substance listed; settings: 101.33 kPa, Liquid

CCCO [propan-1-ol]
[1]
Settings | mass density [kg/m3] | viscosity [mPa·s]
293.15 K | 803.79 | 2.194
298.15 K | 799.74 | 1.945
303.15 K | 795.68 | 1.73

CC(C)O [propan-2-ol]
[1]
Settings | mass density [kg/m3] | viscosity [mPa·s]
293.15 K | 785.84 | 2.405
298.15 K | 781.3 | 2.062
303.15 K | 777.41 | 1.782

CC(C)CO [2-methyl-1-propanol]
[1]
Settings | mass density [kg/m3] | viscosity [mPa·s]
293.15 K | 801.58 | 3.994
298.15 K | 798.09 | 3.334
303.15 K | 794.09 | 2.794

CN1CCNCC1 [N-methylpiperazine]
[1]
Settings | mass density | viscosity [mPa·s]
293.15 K | 903.8 kg/m3 and 903.79 kg/m3 and 903.78 kg/m3 | 2.1
298.15 K | 899.8 kg/m3 | 1.841
303.15 K | 894.52 kg/m3 and 894.54 kg/m3 and 894.55 kg/m3 | 1.624

CCO [ethanol]
[1]
Settings | mass density [kg/m3] | viscosity [mPa·s]
293.15 K | 789.32 | 1.17
298.15 K | 785.06 | 1.078
303.15 K | 780.68 | 0.982

CCCCO [butan-1-ol]
[1]
Settings | mass density [kg/m3] | viscosity [mPa·s]
293.15 K | 809.97 | 2.938
298.15 K | 806.15 | 2.572
303.15 K | 802.14 | 2.271

CO [methanol]
[1]
Settings | mass density [kg/m3] | viscosity [mPa·s]
293.15 K | 791.09 | 0.593
298.15 K | 786.48 | 0.551
303.15 K | 781.22 | 0.509

CN1CCNCC1 [N-methylpiperazine] + CC(C)O
[2]
Settings | mass density, 293.15 K [kg/m3] | mass density, 298.15 K [kg/m3] | mass density, 303.15 K [kg/m3] | viscosity, 293.15 K [mPa·s] | viscosity, 298.15 K [mPa·s] | viscosity, 303.15 K [mPa·s]
x2 = 0 | 903.78 | 899.8 | 894.54 | 2.1 | 1.841 | 1.624
x2 = 0.0998 | 897.99 | 893.98 | 888.87 | 2.261 | 1.967 | 1.733
x2 = 0.1988 | 891.42 | 887.39 | 882.45 | 2.393 | 2.072 | 1.816
x2 = 0.3003 | 883.75 | 879.73 | 874.96 | 2.502 | 2.162 | 1.891
x2 = 0.3998 | 875.22 | 871.21 | 866.62 | 2.581 | 2.224 | 1.938
x2 = 0.5 | 865.48 | 861.47 | 857.07 | 2.65 | 2.281 | 1.984
x2 = 0.5996 | 854.41 | 850.38 | 846.15 | 2.69 | 2.312 | 2.012
x2 = 0.7 | 841.49 | 837.39 | 833.32 | 2.704 | 2.329 | 2.027
x2 = 0.7991 | 826.48 | 822.27 | 818.3 | 2.678 | 2.309 | 2.008
x2 = 0.8503 | 817.61 | 813.32 | 809.39 | 2.648 | 2.284 | 1.986
x2 = 0.9003 | 808.06 | 803.69 | 799.79 | 2.615 | 2.25 | 1.954
x2 = 0.9489 | 797.8 | 793.36 | 789.46 | 2.541 | 2.183 | 1.893

CN1CCNCC1 [N-methylpiperazine] + CCO
[2]
Settings | mass density, 293.15 K [kg/m3] | mass density, 298.15 K [kg/m3] | mass density, 303.15 K [kg/m3] | viscosity, 293.15 K [mPa·s] | viscosity, 298.15 K [mPa·s] | viscosity, 303.15 K [mPa·s]
x2 = 0 | 903.79 | 899.8 | 894.54 | 2.1 | 1.841 | 1.624
x2 = 0.1002 | 900.18 | 896.19 | 891.01 | 2.141 | 1.87 | 1.65
x2 = 0.1994 | 896.41 | 892.42 | 887.31 | 2.206 | 1.924 | 1.694
x2 = 0.3003 | 891.73 | 887.75 | 882.73 | 2.27 | 1.977 | 1.741
x2 = 0.3493 | 889.02 | 885.06 | 880.09 | 2.285 | 1.992 | 1.753
x2 = 0.4021 | 885.73 | 881.8 | 876.89 | 2.301 | 2.009 | 1.771
x2 = 0.451 | 882.31 | 878.41 | 873.55 | 2.288 | 2.001 | 1.764
x2 = 0.5004 | 878.44 | 874.56 | 869.77 | 2.267 | 1.977 | 1.746
x2 = 0.5994 | 869.22 | 865.36 | 860.68 | 2.175 | 1.909 | 1.698
x2 = 0.7011 | 857.04 | 853.14 | 848.58 | 1.996 | 1.772 | 1.595
x2 = 0.8003 | 841.28 | 837.28 | 832.81 | 1.779 | 1.591 | 1.429
x2 = 0.8982 | 820.12 | 815.97 | 811.57 | 1.526 | 1.366 | 1.239

CN1CCNCC1 [N-methylpiperazine] + CCCCO
[2]
Settings | mass density, 293.15 K [kg/m3] | mass density, 298.15 K [kg/m3] | mass density, 303.15 K [kg/m3] | viscosity, 293.15 K [mPa·s] | viscosity, 298.15 K [mPa·s] | viscosity, 303.15 K [mPa·s]
x2 = 0 | 903.79 | 899.8 | 894.54 | 2.1 | 1.841 | 1.624
x2 = 0.0982 | 898.89 | 894.98 | 889.88 | 2.247 | 1.966 | 1.73
x2 = 0.199 | 893.13 | 889.24 | 884.23 | 2.431 | 2.115 | 1.859
x2 = 0.2966 | 886.88 | 883.01 | 878.11 | 2.631 | 2.283 | 2.002
x2 = 0.3973 | 879.73 | 875.91 | 871.16 | 2.841 | 2.461 | 2.153
x2 = 0.5001 | 871.61 | 867.85 | 863.29 | 3.018 | 2.615 | 2.284
x2 = 0.6004 | 862.72 | 859.01 | 854.62 | 3.181 | 2.751 | 2.392
x2 = 0.6995 | 852.72 | 849.01 | 844.76 | 3.261 | 2.832 | 2.471
x2 = 0.7537 | 846.6 | 842.86 | 838.67 | 3.272 | 2.846 | 2.495
x2 = 0.7936 | 841.74 | 837.97 | 833.81 | 3.258 | 2.841 | 2.486
x2 = 0.8002 | 840.9 | 837.13 | 832.97 | 3.247 | 2.833 | 2.489
x2 = 0.8419 | 835.38 | 831.58 | 827.45 | 3.218 | 2.812 | 2.473
x2 = 0.8997 | 827 | 823.16 | 819.05 | 3.145 | 2.756 | 2.427
